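Five compound concentrations were applied to cells in 96-well plates for 48 hours; endpoints were derived by simple linear interpolation of the resulting dose-response curve. TGI marks complete inhibition of growth.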

Some test systems named below: HOP-92 NSCLC; TK-10 renal; HOP-62 NSCLC; SF-295 CNS; CCRF-CEM leukemia; SN12C renal; IGROV1 ovarian; HCC-2998 colon; RPMI-8226 leukemia; COLO 205 colon; M14 melanoma; UO-31 renal; HL-60(TB) leukemia; U251 CNS; HT29 colon; EKVX NSCLC; UACC-62 melanoma; OVCAR-8 ovarian; NCI-H460 lung; CAKI-1 renal.
What all share (assay): NCI tumour cell line growth inhibition, 48 h

Turning to `O=C1CCc2cc3c(cc21)CC1(Cc2cc4c(cc2C1)CCCC4)C3`, the TGI was 11.4 µM in the assay on HOP-92 NSCLC; greater than 100 µM in the assay on TK-10 renal; greater than 100 µM in the assay on HOP-62 NSCLC; greater than 100 µM with SF-295 CNS; greater than 100 µM with CCRF-CEM leukemia; greater than 100 µM in the assay with SN12C renal. The TGI in the assay on IGROV1 ovarian, with HCC-2998 colon, in the assay on RPMI-8226 leukemia, in the assay on COLO 205 colon, in the assay with M14 melanoma and in the assay on UO-31 renal was greater than 100 µM each time. Besides, the TGI in the assay on HL-60(TB) leukemia, with U251 CNS, with HT29 colon, with EKVX NSCLC, in the assay with UACC-62 melanoma and in the assay on OVCAR-8 ovarian was greater than 100 µM each time. The molecule further displayed a TGI in the assay with NCI-H460 lung greater than 100 µM.

Consider `CCOC(=O)C1=NN(c2ccccc2)C2=CC(C)=NN(C)C(=S)N21`, for which the TGI in the assay with HOP-92 NSCLC, with CAKI-1 renal, in the assay on TK-10 renal, in the assay on SF-295 CNS, with CCRF-CEM leukemia and with SN12C renal was greater than 100 µM each time. The TGI in the assay on IGROV1 ovarian, with HCC-2998 colon, with RPMI-8226 leukemia, in the assay with COLO 205 colon, in the assay on M14 melanoma and with UO-31 renal was greater than 100 µM throughout. The TGI in the assay on HL-60(TB) leukemia, with U251 CNS, in the assay with HT29 colon, in the assay with EKVX NSCLC, in the assay with UACC-62 melanoma and in the assay with OVCAR-8 ovarian was greater than 100 µM each time. In addition, the TGI with NCI-H460 lung is greater than 100 µM.

As to `CC(=O)c1cccc(NC(=O)C(=O)C(C(=O)c2ccccc2F)C2OC(=O)c3ccccc32)c1` (configuration not stated), the TGI is greater than 100 µM in the assay with HOP-92 NSCLC; greater than 100 µM with CAKI-1 renal; greater than 100 µM in the assay on TK-10 renal; greater than 100 µM with HOP-62 NSCLC; greater than 100 µM in the assay on SF-295 CNS; 49.6 µM in the assay with CCRF-CEM leukemia. Moreover, the TGI in the assay with SN12C renal was greater than 100 µM; with IGROV1 ovarian, greater than 100 µM; in the assay with HCC-2998 colon, 53.9 µM; in the assay on RPMI-8226 leukemia it was 87.9 µM; in the assay on COLO 205 colon it was 41.9 µM; with M14 melanoma, greater than 100 µM. In addition, the TGI with UO-31 renal is greater than 100 µM; with HL-60(TB) leukemia it was 64.8 µM; in the assay on U251 CNS, 53.2 µM; with HT29 colon, greater than 100 µM; in the assay on EKVX NSCLC, greater than 100 µM; in the assay with UACC-62 melanoma, greater than 100 µM. Moreover, the TGI in the assay on OVCAR-8 ovarian and in the assay on NCI-H460 lung was greater than 100 µM throughout.

With `CC[C@](C)(O)C(=O)O[C@H]1C(=O)O[C@@H]2C[C@H]3C(C)=C[C@H](O)[C@@H](O)[C@]3(C)[C@H]3[C@@]4(O)OC[C@]32[C@@H]1[C@@H](C)[C@H]4O`, the TGI in the assay with HOP-92 NSCLC came to 83.1 µM; in the assay on CAKI-1 renal it was 116 µM; in the assay on HOP-62 NSCLC, 157 µM; with SF-295 CNS, 116 µM; with CCRF-CEM leukemia, 23.9 µM; in the assay on SN12C renal, 310 µM. In addition, the TGI with IGROV1 ovarian was 52.5 µM; in the assay on HCC-2998 colon it was 71.4 µM; in the assay with RPMI-8226 leukemia, 24.4 µM; in the assay with COLO 205 colon it was 86.1 µM; in the assay with UO-31 renal, 284 µM; with HL-60(TB) leukemia, 43.1 µM. In addition, the TGI was determined as 70.5 µM with U251 CNS; 120 µM in the assay on HT29 colon; 50.3 µM with EKVX NSCLC; 94.2 µM in the assay on UACC-62 melanoma; 136 µM in the assay on OVCAR-8 ovarian; 31.3 µM in the assay on NCI-H460 lung.

As for `CCOC(=O)/C=C/c1c[nH]c(C(=O)OCC)c1`, the TGI in the assay on HOP-92 NSCLC, in the assay on CAKI-1 renal, with HOP-62 NSCLC, in the assay on SF-295 CNS, in the assay with CCRF-CEM leukemia and in the assay on SN12C renal was greater than 100 µM each time. Also, the TGI with IGROV1 ovarian, in the assay on HCC-2998 colon, in the assay on RPMI-8226 leukemia, with COLO 205 colon, in the assay with UO-31 renal and in the assay on HL-60(TB) leukemia was greater than 100 µM in each case. Besides, the TGI with U251 CNS, in the assay with HT29 colon, in the assay on EKVX NSCLC, in the assay with UACC-62 melanoma, in the assay with OVCAR-8 ovarian and with NCI-H460 lung was greater than 100 µM each time.

Turning to `CN(C)CCCNc1ccc2nnn3c4ccc(OC(=O)c5ccc([N+](=O)[O-])cc5)cc4c(=O)c1c23`, the TGI is greater than 57.6 µM in the assay on HOP-92 NSCLC; 7.59 µM with CAKI-1 renal; 24.9 µM in the assay on TK-10 renal; greater than 33.1 µM with HOP-62 NSCLC; 20.5 µM in the assay with SF-295 CNS; 5.39 µM in the assay with CCRF-CEM leukemia. Besides, the TGI is 19.6 µM in the assay on SN12C renal; greater than 100 µM with IGROV1 ovarian; 25.5 µM in the assay on HCC-2998 colon; 18.6 µM with RPMI-8226 leukemia; 18.2 µM in the assay with COLO 205 colon; 27 µM in the assay on M14 melanoma. Moreover, the TGI in the assay with UO-31 renal came out at 21 µM; in the assay on U251 CNS, 33.9 µM; in the assay on HT29 colon, 20.6 µM; in the assay with EKVX NSCLC, 25.1 µM; in the assay with UACC-62 melanoma, 37 µM; in the assay on OVCAR-8 ovarian it was 20.8 µM. Also, the TGI with NCI-H460 lung turned out to be 17.9 µM.

Take `CC1CC(C)(O)CC(C(O)CC2CC(=O)NC(=O)C2)C1=O` (configuration not stated): the TGI in the assay on HOP-92 NSCLC is 0.625 µM; in the assay with CAKI-1 renal, 0.0916 µM; with TK-10 renal it was 3.99 µM; in the assay on HOP-62 NSCLC, 0.449 µM; with SF-295 CNS it was 0.142 µM; with CCRF-CEM leukemia, 1.53 µM. For the same molecule, the TGI in the assay with SN12C renal was 0.64 µM; in the assay on IGROV1 ovarian, 1.55 µM; in the assay with HCC-2998 colon, 1.59 µM; in the assay on RPMI-8226 leukemia, 0.564 µM; in the assay on COLO 205 colon, 1.01 µM; in the assay with M14 melanoma, 0.551 µM. For the same molecule, the TGI with UO-31 renal was 1.16 µM; with HL-60(TB) leukemia, 1.1 µM; in the assay with U251 CNS, 7.9 µM; in the assay with HT29 colon, 1.61 µM; with EKVX NSCLC, 3.45 µM; in the assay on UACC-62 melanoma, 0.62 µM. For the same molecule, the TGI in the assay on OVCAR-8 ovarian was 2.89 µM; with NCI-H460 lung, 1.76 µM.

In the case of `Nc1nc(Cl)cc(NCCCCCCCCCCCCNc2cc(Cl)nc(N)n2)n1`, the TGI was 19.3 µM in the assay on HOP-92 NSCLC; greater than 100 µM with TK-10 renal; 35.2 µM in the assay with HOP-62 NSCLC; 32.7 µM with SF-295 CNS; greater than 100 µM in the assay on CCRF-CEM leukemia; greater than 100 µM with SN12C renal. The TGI in the assay with IGROV1 ovarian, in the assay on HCC-2998 colon, with RPMI-8226 leukemia, with COLO 205 colon, with M14 melanoma and in the assay with UO-31 renal was greater than 100 µM throughout. In addition, the TGI is greater than 100 µM in the assay with HL-60(TB) leukemia; 20.1 µM with U251 CNS; greater than 100 µM in the assay with HT29 colon; greater than 100 µM with EKVX NSCLC; greater than 100 µM in the assay on UACC-62 melanoma; 44 µM with OVCAR-8 ovarian. The same molecule yielded a TGI in the assay with NCI-H460 lung greater than 100 µM.

The values above are taken from PubChem BioAssay (NCI).
